Consider 15 compounds from PMC9025560, “A Comparison of Evans Blue and 4-(p-Iodophenyl)butyryl Albumin Binding Moieties on an Integrin αvβ6 Binding Peptide” (Pharmaceutics, 2022).

Where “and” joins values, the source holds several entries; their conditions need not be identical. Equal values may be shown once. Read-outs that look alike come from different tables or passages of the source.

Data set [1] has as its system prostate specific membrane antigen (PSMA). Conditions: cited from earlier work.
Data set [2] concerns BxPC-3 xenograft tumors. In words: Biodistribution in mice bearing BxPC-3 xenograft tumors. The class given is in vivo. Conditions: 4 h p.i.; for Blood uptake / Bone uptake / Brain uptake / BxPC-3 Tumor uptake / Fecal Matter radioactivity / Gall Bladder uptake / Heart uptake / Kidneys uptake / Lg. Intestines uptake / Liver uptake / Lung uptake / Muscle uptake / Pancreas uptake / Skin uptake / Sm. Intestines uptake / Spleen uptake / Stomach uptake / Urine radioactivity: i.v. On the procedure: All animal procedures conformed to the Animal Welfare Act and were approved by the University of California, Davis Institutional Animal Care and Use Committee. Female athymic nu/nu-nude mice (6–8 weeks old) were purchased from Charles River Laboratories (Wilmington, MA, USA) and provided food and water on an ad libitum basis. BxPC-3 xenografts were implanted according to previous methods. Briefly, BxPC-3 cells were evaluated by flow cytometry to confirm integrin αvβ6 expression levels, injected subcutaneously into the left flank [5 million in 100 μL of a 1:1 mixture of serum-free RPMI and GFR Matrigel (Corning, New York, NY, USA)], and allowed to grow for approximately 3 weeks until tumors reached a diameter of 0.5–1 cm.
For biodistribution studies the [^64Cu]1–4 (3.7–5.55 MBq) in PBS (100 μL, pH 7.2) was injected intravenously (i.v.) via catheter into the tail vein. Following a conscious uptake period, the mice were anesthetized (5% isoflurane), euthanized, and dissected ([^64Cu]1 and [^64Cu]2, n = 3/radiolabeled peptide/time point; 4, 24, and 48 h p.i.; the 72 h time point was obtained from the imaging animals after the 72 h PET/CT scans; compounds [^64Cu]3 and [^64Cu]4, n = 2/radiolabeled compound at 4 h p.i.). Tissues were rapidly collected, weighed, and radioactivity measured with a γ-counter. Decay-corrected radioactivity concentrations are expressed as the percentage of injected dose per gram of tissue (% ID/g). Data are reported as mean ± standard deviation (SD) (Figure S20, S21 and S25).

Details of data set [3]: method as in PMID 23236020, PMID 28094532. Conditions: cited from earlier work.
Data set [4] deals with T1, integrin αvβ6 (Homo sapiens, UniProt P06756+P18564).
T1 construct: purchased R&D Systems
T1 sequence (P06756 31-992 limits assumed): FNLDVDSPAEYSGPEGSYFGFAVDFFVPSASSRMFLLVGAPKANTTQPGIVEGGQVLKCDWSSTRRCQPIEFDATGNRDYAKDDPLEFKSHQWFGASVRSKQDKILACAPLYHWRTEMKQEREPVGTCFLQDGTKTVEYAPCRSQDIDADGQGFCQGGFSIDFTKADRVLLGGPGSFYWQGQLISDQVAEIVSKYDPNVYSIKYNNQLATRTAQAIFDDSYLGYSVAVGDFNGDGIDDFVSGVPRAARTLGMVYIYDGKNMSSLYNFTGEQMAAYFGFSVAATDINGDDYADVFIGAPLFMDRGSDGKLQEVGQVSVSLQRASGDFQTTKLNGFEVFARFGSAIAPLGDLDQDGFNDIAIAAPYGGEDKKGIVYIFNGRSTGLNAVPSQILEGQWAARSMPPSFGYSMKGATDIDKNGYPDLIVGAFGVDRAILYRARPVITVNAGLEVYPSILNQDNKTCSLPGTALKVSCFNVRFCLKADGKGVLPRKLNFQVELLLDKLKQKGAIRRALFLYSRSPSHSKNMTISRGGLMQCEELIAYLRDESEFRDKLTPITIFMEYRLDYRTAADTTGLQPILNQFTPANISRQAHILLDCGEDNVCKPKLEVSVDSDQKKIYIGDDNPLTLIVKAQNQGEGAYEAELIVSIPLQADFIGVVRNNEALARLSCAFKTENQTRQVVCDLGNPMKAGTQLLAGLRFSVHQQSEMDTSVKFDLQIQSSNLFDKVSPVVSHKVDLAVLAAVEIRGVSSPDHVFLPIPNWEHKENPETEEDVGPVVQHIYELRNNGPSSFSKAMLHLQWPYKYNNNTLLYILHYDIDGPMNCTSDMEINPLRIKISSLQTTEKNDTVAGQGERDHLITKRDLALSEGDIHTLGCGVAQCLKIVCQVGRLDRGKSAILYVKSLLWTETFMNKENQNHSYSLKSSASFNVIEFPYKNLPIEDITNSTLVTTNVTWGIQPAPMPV
T1 sequence (P18564 22-707 limits assumed): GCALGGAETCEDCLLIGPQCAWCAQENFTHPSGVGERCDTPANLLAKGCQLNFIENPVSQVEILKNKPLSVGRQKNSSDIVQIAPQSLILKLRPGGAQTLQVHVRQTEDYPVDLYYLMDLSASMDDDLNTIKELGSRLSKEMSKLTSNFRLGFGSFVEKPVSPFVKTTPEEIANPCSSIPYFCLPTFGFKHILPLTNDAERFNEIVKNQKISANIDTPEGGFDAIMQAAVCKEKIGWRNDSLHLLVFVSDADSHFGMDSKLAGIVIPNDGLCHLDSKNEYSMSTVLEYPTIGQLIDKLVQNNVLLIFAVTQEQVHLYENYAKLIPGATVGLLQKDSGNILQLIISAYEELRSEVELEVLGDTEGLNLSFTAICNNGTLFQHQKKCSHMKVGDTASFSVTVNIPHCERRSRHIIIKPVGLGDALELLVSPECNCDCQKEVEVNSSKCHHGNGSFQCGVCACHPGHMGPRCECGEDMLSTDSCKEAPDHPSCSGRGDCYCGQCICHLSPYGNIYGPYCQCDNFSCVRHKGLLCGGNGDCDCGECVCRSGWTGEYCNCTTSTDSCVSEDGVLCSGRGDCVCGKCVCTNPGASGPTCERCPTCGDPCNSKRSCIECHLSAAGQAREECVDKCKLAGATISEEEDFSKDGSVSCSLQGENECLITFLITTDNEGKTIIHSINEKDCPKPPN
Set-up: method as in PMID 34783573. The following applies: competitive ELISA against biotinylated LAP; read-out: IC50, integrin αvβ6 affinity; cited from earlier work. In general terms: ELISA stands for enzyme-linked immunosorbent assay.

Data set [5] deals with T1, integrin αvβ6. Kind of data set: Integrin αvβ6 affinity competitive binding ELISA against biotinylated LAP. On the procedure: Affinity for the integrin αvβ6 was determined by competitive binding ELISA of [^NatCu]1 and [^NatCu]2 against biotinylated-LAP (G&P Biosciences, Santa Clara, CA, USA) as previously described to determine the half-maximum inhibitory concentration (IC50). Briefly, in a 96 well Nunc Immuno maxisorp plate, capturing anti-αv antibody (P2W7, 5 μg/mL, Abcam, MA, USA) was plated (50 μL/well) at 37 °C for 1 h, washed with PBS (3×), and blocked overnight with blocking buffer (300 μL/well, 0.5% non-fat dry milk powder (w/v), 1% Tween 20, in PBS). It was then washed with wash buffer that consisted of 2 mmol/L of Tris buffer (pH = 7.6), 150 mmol/L sodium chloride, 1 mmol/L manganese chloride, and 0.1% Tween 20 (v/v) in deionized water (3×). […] The ExtrAvidin HRP was detected with TMB One solution (50 μL/well; Promega Corp., Madison, WI, USA) for 10–15 min at room temperature. The reaction was stopped by adding 1N sulfuric acid (H2SO4, 50 μL/well; EMD, MA, USA) and the absorbance was measured in a Multiscan Ascent plate reader (Thermo Fisher, Waltham, MA, USA) at 450 nm. Half-maximal inhibitory concentration (IC50) of peptides was determined by fitting to sigmoidal dose-response model in GraphPad Prism 8.0 (GraphPad, CA, USA). […]

On the set-up of data set [6]: method as in PMID 32383076, PMID 24267053. The following applies: cited from earlier work.
Data set [7] relates to human serum protein. Set-up: method as in PMID 34783573. Conditions: either serum albumin (human); cited from earlier work.
Data set [8] deals with mouse serum protein. Set-up: method as in PMID 34783573. Conditions: either serum albumin (mouse); cited from earlier work.
For data set [9], the system named is BxPC-3 xenograft tumors. Also noted: method as in PMID 34783573. The following applies: cited from earlier work.
On the set-up of data set [10]: method as in PMID 26771036, PMID 26251416. Conditions: cited from earlier work.
The test system of data set [11] is U87MG glioblastoma tumor model. Conditions: cited from earlier work.
In data set [12] the test system is somatostatin receptor. Conditions: cited from earlier work; for Tumor accumulation: 24 h.
Details of data set [13]: method as in PMID 29653971. The following applies: clinical trials; cited from earlier work.

As to `Cc1cc(-c2ccc(NC(=O)[C@H](CCCCNC(=O)CCN3C(=O)CC(SCC(=O)NCC4CCC(C(=O)N[C@H](Cc5ccc6ccccc6c5)C(=O)NCCCC[C@H](NC(=O)N[C@@H](CCC(=O)O)C(=O)O)C(=O)O)CC4)C3=O)NC(=O)CN3CCN(CC(=O)O)CCN(CC(=O)O)CCN(CC(=O)O)CC3)c(C)c2)ccc1N=Nc1ccc2c(S(=O)(=O)O)cc(S(=O)(=O)O)c(N)c2c1O` (stereo partly shown) [EB-ABM PSMA-617], the Kidney accumulation in data set [1] (4 h) is on record as over 20 % ID/g. Besides, the Tumor accumulation in [1] (from 4 h to 48 h) is reported as 65.6–77.3 % ID/g.
In the case of `Cc1cc(-c2ccc(NC(=O)CCC(=O)NCCCC[C@H](NC(=O)CN3CCN(CC(=O)O)CCN(CC(=O)O)CCN(CC(=O)O)CC3)C(N)=O)c(C)c2)ccc1N=Nc1ccc2c(S(=O)(=O)O)cc(S(=O)(=O)O)c(N)c2c1O` [[^64Cu]3, [^64Cu]Cu DOTA-EB, metal not drawn], in data set [2], the Tumor-Kidney ratio worked out at 1.34 ±0.15, the “Tumor-Lg Intestines ratio” value is on record as 1.49 ±0.68, the Tumor-Liver ratio was 1.2–1.3 and the “Tumor-Sm Intestines ratio” value came out at 2.05 ±0.43. Further, in [2], the Tumor-Stomach ratio is given as 2.52 ±0.58, the Blood uptake is 38.9 ± 10.4 % ID/g, the Bone uptake is on record as 4.81 ± 0.79 % ID/g and the Brain uptake was 0.97 ± 0.19 % ID/g. Besides, in data set [2], the “BxPC-3 Tumor uptake” value is given as 24.82 ± 0.90 % ID/g, the “Fecal Matter radioactivity” value is 33.79 ± 0.90 % ID/g, the “Gall Bladder uptake” value worked out at 28.57 ± 10.67 % ID/g and the Heart uptake amounted to 12.05 ± 2.69 % ID/g. Also, in data set [2], the Kidneys uptake was 18.6 ± 1.4 % ID/g, the “Lg. Intestines uptake” value is 12.75 ± 0.65 % ID/g, the Liver uptake came to 22.01 ± 4.74 % ID/g and the Lung uptake is given as 19.40 ± 1.33 % ID/g. Further, in [2], the Muscle uptake was 4.64 ± 1.40 % ID/g, the Pancreas uptake came to 6.40 ± 1.03 % ID/g, the Skin uptake amounted to 14.77 ± 1.82 % ID/g and the “Sm. Intestines uptake” value stood at 12.45 ± 3.06 % ID/g. In data set [2], the Spleen uptake amounted to 8.10 ± 1.19 % ID/g, the Stomach uptake was found to be 10.16 ± 2.71 % ID/g and the Urine radioactivity is reported as 63.25 ± 27.58 % ID/g. Moreover, in [2] (listed as [64Cu]3), the Blood uptake is 38.88 ± 10.37 % ID/g, the Kidneys uptake is 18.59 ± 1.41 % ID/g, the Tumor-Blood ratio stood at 0.66 ±0.15 and the Tumor-Liver ratio is listed as 1.15 ±0.21. The Tumor-Muscle ratio in data set [2] (listed as [64Cu]3) was 5.58 ±1.49.
For `NC(=O)[C@H](CCCCNC(=O)[C@H](CC(=O)O)NC(=O)CCCNC(=O)CCCc1ccc(I)cc1)NC(=O)CN1CCN(CC(=O)O)CCN(CC(=O)O)CCN(CC(=O)O)CC1` [[^64Cu]4, [^64Cu]Cu DOTA-IP, metal not drawn], in [2], the Tumor-Kidney ratio is reported as 1.83 ±0.19, the “Tumor-Lg Intestines ratio” value came out at 2.83 ±0.36, the Tumor-Liver ratio is 1.2–1.3 and the “Tumor-Sm Intestines ratio” value turned out to be 2.31 ±0.27. Further, in data set [2], the Tumor-Stomach ratio is 3.31 ±0.37, the Blood uptake was determined as 9.5 ± 1.3 % ID/g, the Bone uptake was 1.19 ± 0.06 % ID/g and the Brain uptake is recorded as 0.36 ± 0.05 % ID/g. Further, in [2], the “BxPC-3 Tumor uptake” value is 7.99 ± 1.93 % ID/g, the “Fecal Matter radioactivity” value is 2.54 ± 1.41 % ID/g, the “Gall Bladder uptake” value is listed as 10.23 ± 3.01 % ID/g and the Heart uptake is recorded as 3.07 ± 0.01 % ID/g. In [2], the Kidneys uptake is 4.34 ± 0.61 % ID/g and 4.3 % ID/g; the “Lg. Intestines uptake” value turned out to be 2.90 ± 1.05 % ID/g; the Liver uptake is listed as 6.21 ± 1.51 % ID/g; the Lung uptake was found to be 5.01 ± 0.69 % ID/g. For the same compound, in [2], the Muscle uptake is on record as 1.28 ± 0.03 % ID/g, the Pancreas uptake worked out at 1.50 ± 0.09 % ID/g, the Skin uptake turned out to be 4.38 ± 0.77 % ID/g and the “Sm. Intestines uptake” value is listed as 3.53 ± 1.24 % ID/g. In [2], the Spleen uptake is on record as 2.10 ±0.24 % ID/g, the Stomach uptake was found to be 2.39 ± 0.31 % ID/g and the Urine radioactivity is recorded as 72.25 ± 35.13 % ID/g. For the same compound, in data set [2] (listed as [64Cu]4), the Blood uptake is given as 9.51 ± 1.32 % ID/g, the Tumor-Blood ratio is given as 0.83 ±0.09, the Tumor-Liver ratio is 1.29 ± 0.001 and the Tumor-Muscle ratio is listed as 6.25 ±1.37.
With `Nc1nc2ncc(CNc3ccc(C(=O)N[C@@H](CCC(=O)O)C(=O)O)cc3)nc2c(=O)[nH]1` [folic acid], the Kidney accumulation in data set [3] (4 h) is reported as 70 % ID/g. The Tumor accumulation in [3] (24 h p.i.) is given as 7 % ID/g.
With `O=C(O)CC[C@H](NC(=O)N[C@@H](CCCCNC(=O)[C@H](Cc1ccc2ccccc2c1)NC(=O)[C@H]1CC[C@H](CNC(=O)CN2CCN(CC(=O)O)CCN(CC(=O)O)CCN(CC(=O)O)CC2)CC1)C(=O)O)C(=O)O` [non-ABM PSMA-617], the Tumor accumulation in data set [1] (24 h) is recorded as 38 % ID/g.
For the compound DOTA-αvβ6-BP, in [4], the IC50 (usually the midpoint of a concentration-inhibition curve) was 28 ± 3 nM.
For [NatCu]Cu DOTA-EB-αvβ6-BP [[^NatCu]1], the IC50 in data set [5] is 14 ± 2 nM.
On the same count and under the same terms, for [NatCu]Cu DOTA-IP-αvβ6-BP [[^NatCu]2] the value was 19 ± 5 nM.
Regarding [^18F]AlF NOTA-IP-ABM-αvβ6-BP, the “Fold lower kidney retention than [18F]AlF NOTA-A20FMDV2-peptide” value in [6] is over 3.5 fold.
As to [^64Cu]Cu DOTA-αvβ6-BP, the “Binding to serum albumin” value in [7] and in [8] was under 29% each time. Also, the BxPC-3 Tumor uptake in data set [9] (4 h, same BxPC-3 tumor model) is 1.61 ± 0.70 % ID/g. Also, the figures for the Kidney accumulation in [9] (4 h) and in data set [9] (48 h) were 20.37 ± 1.67 % ID/g and 6.81 ± 1.36 % ID/g, respectively.
As for [^64Cu]Cu NOTA-EB, the figures for the Blood accumulation in data set [10] (4 h) and in [10] (1 d) were ~ 15 % ID/g and ~ 10 % ID/g, respectively.
As for [^64Cu]Cu NOTA-EB-cRGDfK, in [11], the “Fold improvement in tumor accumulation vs. [64Cu]Cu NOTA-cRGDfK” value is over 16 fold and the Tumor accumulation is reported as 16.6 % ID/g.
[^64Cu]Cu NOTA-cRGDfK: the Tumor accumulation in [11] is reported as under 1.1 % ID/g.
With [^177Lu]Lu DOTA-EB-TATE, the Kidney accumulation in data set [12] (4 h) is listed as ~ 30 % ID/g; in data set [12] (72 h) it was ~ 15 % ID/g. In data set [12], the Tumor accumulation is given as 78.8 % ID/g. For the same compound, the “Fold increase in tumor dose delivery” value in data set [13] is listed as 7.9 fold.
For the compound [^177Lu]Lu DOTA-TATE, the Tumor accumulation in [12] was 9.3 % ID/g.
